Measured values as given in patent EP4786487A1, “PEPTIDE” (Peptidream Inc, priority 2023, dated 2025).
Like-named read-outs stand apart in the source and are kept apart here. Starred links: 1 amine or outer side, 2 acyl side, 3 side chain; linkers in the order of their positions; H or OH if unused. Positions of bridges follow the written chain, without caps; N, C: chain ends. Non-standard residues stand in square brackets, D forms with d. Residues, ends and D or L forms follow the SMILES beside them. *: point of attachment. Phe(3-OCH2COOH) = N[C@@H](Cc1cccc(OCC(=O)O)c1)C(=O)O; NMePhe(3-Ph) = CN[C@@H](Cc1cccc(-c2ccccc2)c1)C(=O)O; X2 = CC(=O)N1CCC(C[C@@H](C(=O)[*:2])N(C)[*:1])CC1; Phe(3-Ph) = N[C@@H](Cc1cccc(-c2ccccc2)c1)C(=O)O; Phe(4-COOH) = N[C@@H](Cc1ccc(C(=O)O)cc1)C(=O)O; NMePhe(4-Cl) = CN[C@@H](Cc1ccc(Cl)cc1)C(=O)O; Piperazinyl(4-CH2COOH) = O=C(O)CN1CCN(*)CC1; NMe2Nal = CN[C@@H](Cc1ccc2ccccc2c1)C(=O)O; 1Nal = N[C@@H](Cc1cccc2ccccc12)C(=O)O; NMeY = CN[C@@H](Cc1ccc(O)cc1)C(=O)O; X1 = CCCCCCC[C@H](N[*:1])C(=O)[*:2]; NMeF = CN[C@@H](Cc1ccccc1)C(=O)O; NMeE = CN[C@@H](CCC(=O)O)C(=O)O; NMeA = CN[C@@H](C)C(=O)O; Propyl(3-NH2) = NCCC*; Sar = CNCC(=O)O

Tests used:
[1] = molecular target: T1, Myostatin (Homo sapiens, UniProt O14793); test: HepG2 reporter gene assay, Evaluation Procedure (2): 2-concentrations assay, myostatin inhibition; format: cell-based; conditions: HepG2
T1 construct: active myostatin (also called mature myostatin) is a homodimer consisting of two C-terminal growth factor domains; purchased R&D systems 788-G8/CF
T1 sequence (O14793 267-375): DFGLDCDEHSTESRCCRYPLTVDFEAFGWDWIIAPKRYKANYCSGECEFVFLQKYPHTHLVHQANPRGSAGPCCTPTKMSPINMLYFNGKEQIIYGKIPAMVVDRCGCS
Summary of the method: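 Myostatin inhibition was measured in a luciferase reporter assay using HepG2 cells transfected with a pGL3 vector containing 12 CAGA repeats upstream of luciferase. After 20 to 24 hours with 10 ng/mL myostatin, cells received One-Glo:PBS (1:1) at 100 µL/well, were shaken for 5 min, and 20 µL/well was moved to 384-well plates and read on an Envision 2104.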

[2] = molecular target: T2, GDF-11 (Homo sapiens, UniProt O95390); test: HepG2 reporter gene assay, Evaluation Procedure (2): 2-concentrations assay, GDF-11 inhibition; format: cell-based; conditions: for inhibition at 0.03 µM: HepG2, peptide 30nM, read-out: GDF11 Inhibition 30nM; for inhibition at 0.03 µM / inhibition at 0.1 µM: GDF-11 10 ng/mL; for inhibition at 0.1 µM: HepG2, peptide 100nM, read-out: GDF11 Inhibition 100nM; for inhibition: read-out: inhibition rate (GDF-11 inhibition assay)
T2 construct: purchased R&D systems 1958-GD-G8/CF
T2 sequence (O95390 299-407): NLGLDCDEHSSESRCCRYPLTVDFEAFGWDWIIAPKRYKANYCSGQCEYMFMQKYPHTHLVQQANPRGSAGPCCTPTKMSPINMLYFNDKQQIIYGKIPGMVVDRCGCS
Summary of the method: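 HepG2 cells carrying the transfected pGL3(CAGA)12-luc reporter, a pGL3 vector with luciferase placed downstream of 12 CAGA repeats, were stimulated with GDF-11 at a final 10 ng/mL together with test peptide. Blank wells received no GDF-11 and no peptide. Plates were incubated 20 to 24 hours at 37°C with 5% CO2. Luminescence from One-Glo substrate was read to calculate percent inhibition.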

[3] = peptide 30nM, Myostatin 10 ng/mL, read-out: Myostatin Inhibition 30nM
[4] = peptide 100nM, Myostatin 10 ng/mL, read-out: Myostatin Inhibition 100nM
[5] = Table 7-3/7-4, myostatin 10 ng/mL, peptide at the higher of the 2 concentrations, read-out: inhibition rate (myostatin inhibition assay)
[6] = Table 7-3/7-4, myostatin 10 ng/mL, peptide at the lower of the 2 concentrations, read-out: inhibition rate (myostatin inhibition assay)
[7] = HepG2, first GDF-11 column of Table 7-3/7-4, GDF-11 10 ng/mL, peptide at the lower of the 2 concentrations
[8] = HepG2, second GDF-11 column of Table 7-3/7-4, GDF-11 10 ng/mL, peptide at the higher of the 2 concentrations

| inhibition at 0.03 µM [1, 3] | inhibition at 0.1 µM [1, 4] | inhibition at 0.03 µM [2] | inhibition at 0.1 µM [2] | inhibition at 0.1 µM [1, 5] | inhibition at 0.03 µM [1, 6] | inhibition [2, 7] | inhibition [2, 8] | Compound |
| --- | --- | --- | --- | --- | --- | --- | --- | --- |
| 99% | 100% | 0% | 0% |  |  |  |  | CCCCCCC[C@@H]1NC(=O)[C@H](Cc2ccccc2)N(C)C(=O)[C@H](CCCNC(=N)N)NC(=O)[C@H](Cc2ccc(C(=O)O)cc2)NC(=O)[C@H](Cc2cccc(OCC(=O)O)c2)NC(=O)CN(C)C(=O)[C@H]([C@@H](C)CC)NC(=O)[C@H](Cc2ccc(OCCCN)cc2)N(C)C(=O)[C@H](Cc2ccc(O)cc2)NC(=O)[C@H](Cc2c[nH]c3ccccc23)NC(=O)[C@H](C)NC(=O)[C@H](C)NC(=O)CSC[C@H](C(=O)N2CCN(CC(=O)O)CC2)NC(=O)[C@H](Cc2ccccc2)N(C)C(=O)[C@H](C)N(C)C1=O [Myostatin_99_v302] ({CH2CO}-AAWY[NMeY](Propyl(3-NH2))I[Sar][Phe(3-OCH2COOH)][Phe(4-COOH)]R[NMeF][X1][NMeA][NMeF][dC]-{Piperazinyl(4-CH2COOH)}; thioether N-15) |
| 74% | 88% | 0% | 0% |  |  |  |  | CCCCCCC[C@@H]1NC(=O)[C@H](Cc2ccccc2)N(C)C(=O)[C@H](CCCNC(=N)N)NC(=O)[C@H](Cc2ccc(C(=O)O)cc2)NC(=O)[C@H](Cc2cccc(OCC(=O)O)c2)NC(=O)CN(C)C(=O)[C@H]([C@@H](C)CC)NC(=O)[C@H](Cc2cccc(-c3ccccc3)c2)N(C)C(=O)[C@H](Cc2ccc(O)cc2)NC(=O)[C@H](Cc2c[nH]c3ccccc23)NC(=O)[C@H](C)NC(=O)[C@H](C)NC(=O)CSC[C@H](C(=O)N2CCN(CC(=O)O)CC2)NC(=O)[C@H](Cc2ccccc2)N(C)C(=O)[C@H](C)N(C)C1=O [Myostatin_99_v304] ({CH2CO}-AAWY[NMePhe(3-Ph)]I[Sar][Phe(3-OCH2COOH)][Phe(4-COOH)]R[NMeF][X1][NMeA][NMeF][dC]-{Piperazinyl(4-CH2COOH)}; thioether N-15) |
|  |  |  |  | 94% | 80% | 0% | 0% | CCCCCCC[C@@H]1NC(=O)[C@H](Cc2ccccc2)N(C)C(=O)[C@H](CCCNC(=N)N)NC(=O)[C@H](Cc2ccc(C(=O)O)cc2)NC(=O)[C@H](Cc2cccc(OCC(=O)O)c2)NC(=O)CN(C)C(=O)[C@H]([C@@H](C)CC)NC(=O)[C@H](Cc2ccc3ccccc3c2)N(C)C(=O)[C@H](Cc2ccc(O)cc2)NC(=O)[C@H](Cc2c[nH]c3ccccc23)NC(=O)[C@H](C)NC(=O)[C@H](C)NC(=O)CSC[C@H](C(=O)N2CCN(CC(=O)O)CC2)NC(=O)[C@H](Cc2ccccc2)N(C)C(=O)[C@H](C)N(C)C1=O [Myostatin_99_v306] ({CH2CO}-AAWY[NMe2Nal]I[Sar][Phe(3-OCH2COOH)][Phe(4-COOH)]R[NMeF][X1][NMeA][NMeF][dC]-{Piperazinyl(4-CH2COOH)}; thioether N-15) |
|  |  |  |  | 98% | 89% | 0% | 12% | CCCCCCC[C@@H]1NC(=O)[C@H](Cc2ccccc2)N(C)C(=O)[C@H](CCCNC(=N)N)NC(=O)[C@H](Cc2ccc(C(=O)O)cc2)NC(=O)[C@H](Cc2cccc(OCC(=O)O)c2)NC(=O)CN(C)C(=O)[C@H]([C@@H](C)CC)NC(=O)[C@H](Cc2ccc(OC)cc2)N(C)C(=O)[C@H](Cc2ccc(O)cc2)NC(=O)[C@H](Cc2c[nH]c3ccccc23)NC(=O)[C@H](C)NC(=O)[C@H](C)NC(=O)CSC[C@H](C(=O)N2CCN(CC(=O)O)CC2)NC(=O)[C@H](Cc2ccccc2)N(C)C(=O)[C@H](C)N(C)C1=O [Myostatin_99_v307] ({CH2CO}-AAWY[NMeY](Me)I[Sar][Phe(3-OCH2COOH)][Phe(4-COOH)]R[NMeF][X1][NMeA][NMeF][dC]-{Piperazinyl(4-CH2COOH)}; thioether N-15) |
|  |  |  |  | 97% | 87% | 0% | 3% | CCCCCCC[C@@H]1NC(=O)[C@H](Cc2ccccc2)N(C)C(=O)[C@H](CCCNC(=N)N)NC(=O)[C@H](Cc2ccc(C(=O)O)cc2)NC(=O)[C@H](Cc2cccc(OCC(=O)O)c2)NC(=O)CN(C)C(=O)[C@H]([C@@H](C)CC)NC(=O)[C@H](Cc2ccc(Cl)cc2)N(C)C(=O)[C@H](Cc2ccc(O)cc2)NC(=O)[C@H](Cc2c[nH]c3ccccc23)NC(=O)[C@H](C)NC(=O)[C@H](C)NC(=O)CSC[C@H](C(=O)N2CCN(CC(=O)O)CC2)NC(=O)[C@H](Cc2ccccc2)N(C)C(=O)[C@H](C)N(C)C1=O [Myostatin_99_v308] ({CH2CO}-AAWY[NMePhe(4-Cl)]I[Sar][Phe(3-OCH2COOH)][Phe(4-COOH)]R[NMeF][X1][NMeA][NMeF][dC]-{Piperazinyl(4-CH2COOH)}; thioether N-15) |

More lines, now with the values behind:

| Compound | inhibition at 0.03 µM [1, 3] | inhibition at 0.1 µM [1, 4] | inhibition at 0.03 µM [2] | inhibition at 0.1 µM [2] | inhibition at 0.1 µM [1, 5] | inhibition at 0.03 µM [1, 6] | inhibition [2, 7] | inhibition [2, 8] |
| --- | --- | --- | --- | --- | --- | --- | --- | --- |
| CCCCCCC[C@@H]1NC(=O)[C@H](Cc2ccccc2)N(C)C(=O)[C@H](CCCNC(=N)N)NC(=O)[C@H](Cc2ccc(C(=O)O)cc2)NC(=O)[C@H](Cc2cccc(OCC(=O)O)c2)NC(=O)CN(C)C(=O)[C@H]([C@@H](C)CC)NC(=O)[C@H](Cc2ccccc2)N(C)C(=O)[C@H](Cc2cccc3ccccc23)NC(=O)[C@H](Cc2c[nH]c3ccccc23)NC(=O)[C@H](C)NC(=O)[C@H](C)NC(=O)CSC[C@H](C(=O)N2CCN(CC(=O)O)CC2)NC(=O)[C@H](Cc2ccccc2)N(C)C(=O)[C@H](C)N(C)C1=O [Myostatin_99_v300] ({CH2CO}-AAW[1Nal][NMeF]I[Sar][Phe(3-OCH2COOH)][Phe(4-COOH)]R[NMeF][X1][NMeA][NMeF][dC]-{Piperazinyl(4-CH2COOH)}; thioether N-15) | 81% | 97% | 0% | 0% |  |  |  |  |
| CCCCCCC[C@@H]1NC(=O)[C@H](Cc2ccccc2)N(C)C(=O)[C@H](CCCNC(=N)N)NC(=O)[C@H](Cc2ccc(C(=O)O)cc2)NC(=O)[C@H](Cc2cccc(OCC(=O)O)c2)NC(=O)CN(C)C(=O)[C@H]([C@@H](C)CC)NC(=O)[C@H](Cc2ccccc2)N(C)C(=O)[C@H](Cc2cccc(-c3ccccc3)c2)NC(=O)[C@H](Cc2c[nH]c3ccccc23)NC(=O)[C@H](C)NC(=O)[C@H](C)NC(=O)CSC[C@H](C(=O)N2CCN(CC(=O)O)CC2)NC(=O)[C@H](Cc2ccccc2)N(C)C(=O)[C@H](C)N(C)C1=O [Myostatin_99_v301] ({CH2CO}-AAW[Phe(3-Ph)][NMeF]I[Sar][Phe(3-OCH2COOH)][Phe(4-COOH)]R[NMeF][X1][NMeA][NMeF][dC]-{Piperazinyl(4-CH2COOH)}; thioether N-15) | 93% | 99% | 0% | 0% |  |  |  |  |
| CCCCCCC[C@@H]1NC(=O)[C@H](Cc2ccccc2)N(C)C(=O)[C@H](CCCNC(=N)N)NC(=O)[C@H](Cc2ccc(C(=O)O)cc2)NC(=O)[C@H](Cc2cccc(OCC(=O)O)c2)NC(=O)CN(C)C(=O)[C@H]([C@@H](C)CC)NC(=O)[C@H](CC2CCN(C(C)=O)CC2)N(C)C(=O)[C@H](Cc2ccc(O)cc2)NC(=O)[C@H](Cc2c[nH]c3ccccc23)NC(=O)[C@H](C)NC(=O)[C@H](C)NC(=O)CSC[C@H](C(=O)N2CCN(CC(=O)O)CC2)NC(=O)[C@H](Cc2ccccc2)N(C)C(=O)[C@H](C)N(C)C1=O [Myostatin_99_v303] ({CH2CO}-AAWY[X2]I[Sar][Phe(3-OCH2COOH)][Phe(4-COOH)]R[NMeF][X1][NMeA][NMeF][dC]-{Piperazinyl(4-CH2COOH)}; thioether N-15) | 100% | 100% | 39% | 67% |  |  |  |  |
| CCCCCCC[C@@H]1NC(=O)[C@H](Cc2ccccc2)N(C)C(=O)[C@H](CCCNC(=N)N)NC(=O)[C@H](Cc2ccc(C(=O)O)cc2)NC(=O)[C@H](Cc2cccc(OCC(=O)O)c2)NC(=O)CN(C)C(=O)[C@H]([C@@H](C)CC)NC(=O)[C@H](Cc2ccccc2)N(C)C(=O)[C@H](Cc2ccc(O)cc2)NC(=O)[C@H](Cc2c[nH]c3ccccc23)NC(=O)[C@H](C)NC(=O)[C@H](C)NC(=O)CSC[C@H](C(=O)N2CCN(CC(=O)O)CC2)NC(=O)[C@H](Cc2ccccc2)N(C)C(=O)[C@H](CCC(=O)O)N(C)C1=O [Myostatin_99_v311] ({CH2CO}-AAWY[NMeF]I[Sar][Phe(3-OCH2COOH)][Phe(4-COOH)]R[NMeF][X1][NMeE][NMeF][dC]-{Piperazinyl(4-CH2COOH)}; thioether N-15) |  |  |  |  | 100% | 99% | 0% | 5% |
